Measured values from patent publication US9572828B2, “Treatment for melanoma” (The Board of Regents of the University of Texas System, priority 2013, dated 2017).

Assays:
[1] = human, in vivo; cited from earlier work
[2] = human, in vivo; cited from earlier work; remark: listed apart in the source
[3] = tested on: primary melanomas from patients; assay: xenograft assay, digitoxin and/or GSK1120212; type: in vivo, NSG mice; settings: 0.5 mg/kg/day each agent by oral gavage; melanomas from multiple patients, with and without BRAF mutations
Experimental: Melanoma cells were injected subcutaneously in the right flanks of immunocompromised NSG mice. When tumors became palpable, mice were randomized to four different treatments. […] Control mice received vehicle only (200 μl 0.5% promethylcellulose, 0.2% Tween80 and 5% DMSO per day). Tumors were measured every 2-3 days with calipers.
In these experiments, metastatic melanoma cells were injected subcutaneously in the right flanks of immunocompromised NSG mice. When tumors became palpable, mice were randomized to four different treatments. […] Control mice received vehicle only (200 μl 0.5% promethylcellulose, 0.2% Tween80 and 5% DMSO per day). Tumors were measured every 2-3 days with calipers and bioluminescence imaging was performed when the diameter of the tumors in vehicle treated mice reached 2 cm.

[4] = 4 hours after 0.5 mg/kg injection (FIG. 1C)
[5] = tested on: BRAFV600E/K mutant advanced or malignant melanoma; settings: cited from earlier work

C[C@H]1O[C@@H](O[C@H]2[C@@H](O)C[C@H](O[C@H]3[C@@H](O)C[C@H](O[C@H]4CC[C@@]5(C)[C@H](CC[C@@H]6[C@@H]5C[C@@H](O)[C@]5(C)[C@@H](C7=CC(=O)OC7)CC[C@]65O)C4)O[C@@H]3C)O[C@@H]2C)C[C@H](O)[C@@H]1O [digoxin]
frequency of common adverse effects (loss of appetite, nausea, vomiting, diarrhea etc.) [1]: ≥ 1 % of patients | plasma concentration at which adverse effects are rare [1]: < 0.8 ng/mL | half-life [2]: about 36 hours

C[C@H]1O[C@@H](O[C@H]2[C@@H](O)C[C@H](O[C@H]3[C@@H](O)C[C@H](O[C@H]4CC[C@@]5(C)[C@H](CC[C@@H]6[C@@H]5CC[C@]5(C)[C@@H](C7=CC(=O)OC7)CC[C@]65O)C4)O[C@@H]3C)O[C@@H]2C)C[C@H](O)[C@@H]1O [digitoxin]
growth of human melanoma xenografts [3]: slowed the growth | doses in the plasma of mice [4]: fell within the therapeutic range in humans

CC(=O)Nc1cccc(-n2c(=O)n(C3CC3)c(=O)c3c(Nc4ccc(I)cc4F)n(C)c(=O)c(C)c32)c1 [Trametinib]
chorioretinopathy ([5]; MEKi class effect): < 1% | decreased ejection fraction ([5]; MEKi class effect): 7% | Grade 3 hypertension ([5]; Trametinib arm): 12% | Grade 3 rash ([5]; Trametinib arm): 7%
